According to PubChem BioAssay AID1963983 (Molecular Pharmacology Branch, DTP, NCI, 2024):

Tested on: 186277-243-T-J2-PDC multi-cell spheroid viability
Assay: Anticancer human tumor 186277-243-T-J2-PDC patient-derived colon adenocarcinoma cell line growth inhibition [PI3K]
Details: for viability, T/C: stronger effect = lower value
Excerpt: Combinatorial screen of targeted agents with the PI3K inhibitors inavolisib, alpelisib, duvelisib, and copanlisib in multi-cell type tumor spheroids
A high-throughput screen of multi-cell type tumor spheroids was designed to identify active combinations of targeted small molecules and PI3K pathway inhibitors. Complex spheroids include a stromal component modeled by human endothelial cells (HUVEC) and fibroblasts modeled by human mesenchymal stem cells (MSCs). The concentration ranges selected for each drug and investigational agent were based upon clinically achievable concentrations if the clinical Cmax of the agent was known.
Compounds. The drugs and investigational agents: inavolisib (NSC800729), alpelisib (NSC765974), duvelisib (NSC772469), copanlisib (NSC816437), ipatasertib (NSC767898), afuresertib (NSC778305), talazoparib (NSC767125), sapanisertib (NSC764658), selumetinib (NSC741078), tovorafenib (DAY101, NSC766906), vemurafenib (NSC761431), ravoxertinib (NSC781343), sotorasib (NSC818433), MRTX1133 (NSC 836407), abemaciclib (NSC 768073), palbociclib (NSC758247), venetoclax (NSC 766270), SY5609 (NSC837396), enzalutamide (NSC755605), and darolutamide (NSC825331), were obtained from the National Cancer Institute (NCI) Developmental Therapeutics Program Chemical Repository. The FDA-approved anticancer drug set is available from the NCI Developmental Therapeutics Program. […] The stock solutions were prepared in dimethyl sulfoxide (DMSO, Sigma-Aldrich, St. Louis, MO, cat. D2650) at 800-fold the tested concentration and stored at -70 degrees C prior to their use. All drugs and investigational agents were tested over a range starting from a high concentration at or near the clinical Cmax and decreasing in half-log increments. If the clinical Cmax for an agent had not been determined, the highest concentration tested was 10 microM.
Cell Culture. All cells were maintained in an incubator at 37 degrees C and 5% CO2 with 95% humidity. The PDC lines were cultured according to standard operating procedures established by the NCI PDMR (https://pdmr.cancer.gov/sops/default.htm). All PDCs were thawed and cultured in Matrigel-coated flasks prepared with a working solution of 1X Ham's F-12 nutrient mix, without supplementation (Invitrogen, Waltham, MA, cat. 11765054), 100 U/mL penicillin-streptomycin (Invitrogen, cat. 15140122), and 2.5% Matrigel (Corning Inc., Corning, NY, cat. 354248) for the first three passages. The 354836-022-R-J1-PDC, 475296-252-R-J1-PDC, and 997726-040-R-J2-PDC lines were cultured in 6A media, which includes advanced DMEM/F-12 (Thermo Fisher Scientific, cat. 12634028), 10 mM HEPES (Thermo Fisher Scientific, cat. 15630080), 1X GlutaMAX supplement (Thermo Fisher Scientific, cat. 35050061), 0.1 mg/mL primocin (InvivoGen, San Diego, CA, cat. ant-pm-2), 10% defined fetal bovine serum, heat inactivated (HyClone Laboratories Inc., Logan, UT, cat. SH30070.03HI), 50% L-WRN conditioned media (ATCC, cat. CRL-3276), 1.25 mM N-Acetyl-L-cysteine (Sigma-Aldrich, cat. A9165), 10 mM nicotinamide (Sigma-Aldrich, cat. N0636), 1X B-27 supplement (Thermo Fisher Scientific, cat. 17504044), 1X N-2 supplement (Thermo Fisher Scientific, cat. 17502048), and 10 microM Y-27632 dihydrochloride (Tocris Bioscience, Bristol, United Kingdom, cat. 1254). The 624824-186-R-J2-PDC line was cultured in 6C/Colon 1B media, which includes all 6A media components plus 50 ng/mL human EGF recombinant protein (Thermo Fisher Scientific, cat. PHG0311). […]
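Also: spheroids exposed to compounds for seven days before viability reading.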
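For viability, T/C in this document: 100% = DMSO vehicle control viability.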

C[C@@H](NC(=O)c1ncnc(N)c1Cl)c1ncc(C(=O)Nc2cc(C(F)(F)F)c(Cl)cn2)s1
viability, T/C (compound 0.0316 µM): 95.7% [middle of 4 runs]
viability, T/C (compound 0.1 µM): 92.9% [middle of 4 runs]
viability, T/C (compound 0.316 µM): 92.3% [middle of 4 runs]
viability, T/C (compound 1 µM): 99.5% [middle of 4 runs]
viability, T/C (compound 3.16 µM): 105% [middle of 4 runs]
viability, T/C (compound 10 µM): 79.9% [middle of 4 runs]
IC50 (curve of compound): > 10000 nM

CC(=O)c1c(C)c2cnc(Nc3ccc(N4CCNCC4)cn3)nc2n(C2CCCC2)c1=O + CC(Nc1ncnc2nc[nH]c12)c1cc2cccc(Cl)c2c(=O)n1-c1ccccc1
IC50 (curve of first compound, second compound 0.0316 µM): > 100 nM
IC50 (curve of first compound, second compound 0.1 µM): > 100 nM
IC50 (curve of first compound, second compound 0.316 µM): > 100 nM
IC50 (curve of first compound, second compound 1 µM): > 100 nM
IC50 (curve of first compound, second compound 3.16 µM): > 100 nM
IC50 (curve of first compound, second compound 10 µM): > 100 nM
viability, T/C (second compound 0.0316 µM, first compound 0.000316 µM): 87.2%
viability, T/C (second compound 0.0316 µM, first compound 0.001 µM): 96.8%
viability, T/C (second compound 0.0316 µM, first compound 0.00316 µM): 114%
viability, T/C (second compound 0.0316 µM, first compound 0.01 µM): 97.2%
viability, T/C (second compound 0.0316 µM, first compound 0.0316 µM): 109%
viability, T/C (second compound 0.0316 µM, first compound 0.1 µM): 113%
viability, T/C (second compound 0.1 µM, first compound 0.000316 µM): 87.2%
viability, T/C (second compound 0.1 µM, first compound 0.001 µM): 91.5%
viability, T/C (second compound 0.1 µM, first compound 0.00316 µM): 99%
viability, T/C (second compound 0.1 µM, first compound 0.01 µM): 96%
viability, T/C (second compound 0.1 µM, first compound 0.0316 µM): 116%
viability, T/C (second compound 0.1 µM, first compound 0.1 µM): 133%
viability, T/C (second compound 0.316 µM, first compound 0.000316 µM): 96.9%
viability, T/C (second compound 0.316 µM, first compound 0.001 µM): 97.2%
viability, T/C (second compound 0.316 µM, first compound 0.00316 µM): 97.7%
viability, T/C (second compound 0.316 µM, first compound 0.01 µM): 107%
viability, T/C (second compound 0.316 µM, first compound 0.0316 µM): 118%
viability, T/C (second compound 0.316 µM, first compound 0.1 µM): 127%
viability, T/C (second compound 1 µM, first compound 0.000316 µM): 96.3%
viability, T/C (second compound 1 µM, first compound 0.001 µM): 96.8%
viability, T/C (second compound 1 µM, first compound 0.00316 µM): 107%
viability, T/C (second compound 1 µM, first compound 0.01 µM): 107%
viability, T/C (second compound 1 µM, first compound 0.0316 µM): 122%
viability, T/C (second compound 1 µM, first compound 0.1 µM): 118%
viability, T/C (second compound 3.16 µM, first compound 0.000316 µM): 98.2%
viability, T/C (second compound 3.16 µM, first compound 0.001 µM): 104%
viability, T/C (second compound 3.16 µM, first compound 0.00316 µM): 89.1%
viability, T/C (second compound 3.16 µM, first compound 0.01 µM): 110%
viability, T/C (second compound 3.16 µM, first compound 0.0316 µM): 99.5%
viability, T/C (second compound 3.16 µM, first compound 0.1 µM): 119%
viability, T/C (second compound 10 µM, first compound 0.000316 µM): 84%
viability, T/C (second compound 10 µM, first compound 0.001 µM): 93.1%
viability, T/C (second compound 10 µM, first compound 0.00316 µM): 89.7%
viability, T/C (second compound 10 µM, first compound 0.01 µM): 79.3%
viability, T/C (second compound 10 µM, first compound 0.0316 µM): 100%
viability, T/C (second compound 10 µM, first compound 0.1 µM): 97.9%
